Where two headings read alike, the source gives them in different places.
Target: T1, human recombinant 5-HT2C receptor (Homo sapiens, UniProt P28335)
T1 construct: expressed in transfected cells
T1 sequence (P28335 33-458): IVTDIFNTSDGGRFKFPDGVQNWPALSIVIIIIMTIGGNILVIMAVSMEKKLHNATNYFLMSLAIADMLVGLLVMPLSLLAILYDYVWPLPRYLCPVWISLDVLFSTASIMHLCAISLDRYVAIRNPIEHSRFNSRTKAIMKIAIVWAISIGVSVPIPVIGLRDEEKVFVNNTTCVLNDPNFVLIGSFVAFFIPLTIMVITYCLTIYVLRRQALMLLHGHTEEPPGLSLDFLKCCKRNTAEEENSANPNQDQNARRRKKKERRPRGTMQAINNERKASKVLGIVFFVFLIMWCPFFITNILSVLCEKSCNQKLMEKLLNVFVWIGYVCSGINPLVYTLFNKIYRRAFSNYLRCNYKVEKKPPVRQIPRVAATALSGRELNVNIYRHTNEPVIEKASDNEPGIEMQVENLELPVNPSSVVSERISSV
Test: [3H]Mesulergine binding to serotonin 5-HT2C receptor
Conditions: read-out: Affinity for 5-HT2C receptor (IC50)
Method: [^3H]Mesulergine Binding to Serotonin 5-HT2C Receptor
Frozen membranes from stable CHO—K1 cell line expressing the human recombinant 5-HT2C receptor were used. For the binding assay, [^3H]Mesulergine (1 nM), receptor membrane (4 ug/well) and test compounds were added into 50 mM Tris-HCl (pH 7.7) buffer containing 0.1% ascorbic acid and 10 uM pargyline. Nonspecific binding was determined using 0.5 uM mianserin. The incubations were performed for 30 min at 37° C., and these were terminated by rapid filtration through Whatman GF/C glass fiber filters presoaked in 1% BSA. Then, the resultant was washed with cold 50 mM Tris-HCl buffer. The filter was covered with MeltiLex, sealed in a sample bag followed by drying in the microwave oven, and counted by MicroBeta Plus (Wallac, Finland). Nonspecific binding was determined in the presence of mianserin (0.5 uM). Competition binding studies were carried out with 7-8 varied concentrations of the test compounds run in duplicate tubes, and isotherms from three assays were calculated by computerized nonlinear regression analysis (GraphPad Prism Program, San Diego, USA) to yield IC50 values (Table 1).

[1] = [3H]Mesulergine (1 nM), membranes from CHO-K1 cell line expressing human recombinant 5-HT2C receptor, 30 min at 37° C.

Structure (SMILES)	IC50 [1] [nM]	IC50 [nM]
CN1CCN(c2nc(Nc3ccc(F)cc3)c3cnn(C)c3n2)CC1 [Comp. 35, N-(4-fluorophenyl)-1-methyl-6-(4-methylpiperazine-1-yl)-1H-pyrazolo[3,4-d]pyrimidine-4-amine]	20.1	–
Cn1ncc2c(Nc3ccc(F)cc3)nc(NC3CCCCC3)nc21 [Comp. 14, N^6-cyclohexyl-N^4-(4-fluorophenyl)-1-methyl-1H-pyrazolo[3,4-d]pyrimidine-4,6-diamine]	5710	–
Cn1ncc2c(Nc3ccc(F)cc3)nc(NCCN3CCOCC3)nc21 [Comp. 18, N^4-(4-fluorophenyl)-1-methyl-N^6-(2-morpholinoethyl)-1H-pyrazolo[3,4-d]pyrimidine-4,6-diamine]	> 1000	–
CCN(CC)c1nc(Nc2ccc(F)cc2)c2cnn(C)c2n1 [Comp. 20, N^6,N^6-diethyl-N^4-(4-fluorophenyl)-1-methyl-1H-pyrazolo[3,4-d]pyrimidine-4,6-diamine]	3310	–
Cc1ccc(CNc2nc(Nc3ccc(F)cc3)c3cnn(C)c3n2)cc1 [Comp. 17, N^4-(4-fluorophenyl)-1-methyl-N^6-(4-methylbenzyl)-1H-pyrazolo[3,4-d]pyrimidine-4,6-diamine]	5830	–
Cn1ncc2c(Nc3ccc(F)cc3)nc(NC3CCCC3)nc21 [Comp. 15, N^6-cyclopentyl-N^4-(4-fluorophenyl)-1-methyl-1H-pyrazolo[3,4-d]pyrimidine-4,6-diamine]	> 1000	–
CCNc1nc(Nc2ccc(F)cc2)c2cnn(C)c2n1 [Comp. 9, N^6-ethyl-N^4-(4-fluorophenyl)-1-methyl-1H-pyrazolo[3,4-d]pyrimidine-4,6-diamine]	> 1000	–
COCCCNc1nc(Nc2ccc(F)cc2)c2cnn(C)c2n1 [Comp. 12, N^4-(4-fluorophenyl)-N^6-(3-methoxypropyl)-1-methyl-1H-pyrazolo[3,4-d]pyrimidine-4,6-diamine]	> 1000	–
CNc1nc(Nc2ccc(F)cc2)c2cnn(C)c2n1 [Comp. 8, N^4-(4-fluorophenyl)-N^6,1-dimethyl-1H-pyrazolo[3,4-d]pyrimidine-4,6-diamine]	7790	–
CCN(CC)c1nc(Nc2ccc(C)c(C)c2)c2cnn(C)c2n1 [Comp. 4, N^4-(3,4-dimethylphenyl)-N^6,N^6-diethyl-1-methyl-1H-pyrazolo[3,4-d]pyrimidine-4,6-diamine]	8490	–
Cn1ncc2c(Nc3ccc(F)cc3)nc(NCc3ccccc3)nc21 [Comp. 16, N^6-benzyl-N4-(4-fluorophenyl)-1-methyl-1H-pyrazolo[3,4-d]pyrimidine-4,6-diamine]	2590	–
COCCNc1nc(Nc2ccc(F)cc2)c2cnn(C)c2n1 [Comp. 11, N^4-(4-fluorophenyl)-N^6-(2-methoxyethyl)-1-methyl-1H-pyrazolo[3,4-d]pyrimidine-4,6-diamine]	> 1000	–
Cn1ncc2c(Nc3ccc(F)cc3)nc(NCCCO)nc21 [Comp. 10, 3-(4-(4-fluorophenylamino)-1-methyl-1H-pyrazolo[3,4-d]pyrimidine-6-ylamino)propane-1-ol]	> 1000	–
CCN(CC)c1nc(Nc2ccccc2C)c2cnn(C)c2n1 [Comp. 7, N^6,N^6-diethyl-1-methyl-N^4-o-tolyl-1H-pyrazolo[3,4-d]pyrimidine-4,6-diamine]	242	–
CCN(CC)c1nc(Nc2ccc(Cl)cc2)c2cnn(C)c2n1 [Comp. 5, N^4-(4-chlorophenyl)-N^6,N^6-diethyl-1-methyl-1H-pyrazolo[3,4-d]pyrimidine-4,6-diamine]	991	–
C=CCNc1nc(Nc2ccc(F)cc2)c2cnn(C)c2n1 [Comp. 13, N^6-allyl-N^4-(4-fluorophenyl)-1-methyl-1H-pyrazolo[3,4-d]pyrimidine-4,6-diamine]	> 1000	–
CN1CCN(c2nc(Nc3ccc(F)cc3)c3cnn(C)c3n2)CC1 [Comp. 25, N-(4-fluorophenyl)-1-methyl-6-(4-methylpiperazine-1-yl)-1H-pyrazolo[3,4-d]pyrimidine-4-amine]	85.8	–
COc1ccc(Nc2nc(N3CCN(c4ccc(F)cc4)CC3)nc3c2cnn3C)cc1 [Comp. 34, 6-(4-(4-fluorophenyl)piperazine-1-yl)-N-(4-methoxyphenyl)-1-methyl-1H-pyrazolo[3,4-d]pyrimidine-4-amine]	–	1180

Continued, in another order:

IC50 [1] [nM]	Structure (SMILES)	IC50 [nM]
148	Cn1ncc2c(Nc3ccc(F)cc3)nc(N3CCN(c4ccc(F)cc4)CC3)nc21 [Comp. 29, N-(4-fluorophenyl)-6-(4-(4-fluorophenyl)piperazine-1-yl)-1-methyl-1H-pyrazolo[3,4-d]pyrimidine-4-amine]	–
1720	COc1ccccc1N1CCN(c2nc(Nc3ccc(F)cc3)c3cnn(C)c3n2)CC1 [Comp. 30, N-(4-fluorophenyl)-6-(4-(2-methoxyphenyl)piperazine-1-yl)-1-methyl-1H-pyrazolo[3,4-d]pyrimidine-4-amine]	–
1080	COc1cccc(Nc2nc(N3CCN(c4ccc(F)cc4)CC3)nc3c2cnn3C)c1 [Comp. 33, 6-(4-(4-fluorophenyl)piperazine-1-yl)-N-(3-methoxyphenyl)-1-methyl-1H-pyrazolo[3,4-d]pyrimidine-4-amine]	–
416	Cn1ncc2c(Nc3ccc(F)cc3)nc(N3CCN(c4ccccc4)CC3)nc21 [Comp. 28, N-(4-fluorophenyl)-1-methyl-6-(4-phenylpiperazine-1-yl)-1H-pyrazolo[3,4-d]pyrimidine-4-amine]	–
5420	CCN(CC)c1nc(Nc2cccc(OC)c2)c2cnn(C)c2n1 [Comp. 31, N^6,N^6-diethyl-N^4-(3-methoxyphenyl)-1-methyl-1H-pyrazolo[3,4-d]pyrimidine-4,6-diamine]	–
7.8	COc1cccc(Nc2nc(N3CCN(C)CC3)nc3c2cnn3C)c1 [Comp. 32, N-(3-methoxyphenyl)-1-methyl-6-(4-methylpiperazine-1-yl)-1H-pyrazolo[3,4-d]pyrimidine-4-amine]	–
2070	Cn1ncc2c(Nc3ccc(F)cc3)nc(N3CCOCC3)nc21 [Comp. 21, N-(4-fluorophenyl)-1-methyl-6-morpholino-1H-pyrazolo[3,4-d]pyrimidine-4-amine]	–
494	Cn1ncc2c(Nc3ccc(F)cc3)nc(N3CCN(CCO)CC3)nc21 [Comp. 26, 2-(4-(4-(4-fluorophenylamino)-1-methyl-1H-pyrazolo[3,4-d]pyrimidine-6-yl)piperazine-1-yl)ethanol]	–
836	Cn1ncc2c(Nc3ccc(F)cc3)nc(N3CCN(Cc4ccccc4)CC3)nc21 [Comp. 27, 6-(4-benzylpiperazine-1-yl)-N-(4-fluorophenyl)-1-methyl-1H-pyrazolo[3,4-d]pyrimidine-4-amine]	–
4030	CN(C)c1nc(Nc2ccc(F)cc2)c2cnn(C)c2n1 [Comp. 19, N^4-(4-fluorophenyl)-N^6,N^6,1-trimethyl-1H-pyrazolo[3,4-d]pyrimidine-4,6-diamine]	–
29.4	CN1CCN(c2nc(Nc3ccc(Cl)cc3)c3cnn(C)c3n2)CC1 [Comp. 6, N^6-(4-chlorophenyl)-1-methyl-6-(4-methylpiperazine-1-yl)-1H-pyrazolo[3,4-d]pyrimidine-4-amine]	–
1500	CC1CCN(c2nc(Nc3ccc(F)cc3)c3cnn(C)c3n2)CC1 [Comp. 24, N-(4-fluorophenyl)-1-methyl-6-(4-methylpiperidine-1-yl)-1H-pyrazolo[3,4-d]pyrimidine-4-amine]	–
1300	Cn1ncc2c(Nc3ccc(F)cc3)nc(N3CCCCC3)nc21 [Comp. 22, N-(4-fluorophenyl)-1-methyl-6-(piperidine-1-yl)-1H-pyrazolo[3,4-d]pyrimidine-4-amine]	–
86.9	CN1CCN(c2nc(Nc3ccccc3)c3cnn(C)c3n2)CC1 [Comp. 3, 1-methyl-6-(4-methylpiperazine-1-yl)-N-phenyl-1H-pyrazolo[3,4-d]pyrimidine-4-amine]	–
3820	CC1CC(C)CN(c2nc(Nc3ccc(F)cc3)c3cnn(C)c3n2)C1 (stereo not drawn) [Comp. 23, 6-(3,5-dimethylpiperidine-1-yl)-N-(4-fluorophenyl)-1-methyl-1H-pyrazolo[3,4-d]pyrimidine-4-amine]	–

From patent publication US8232279B2, “Pyrazolopyrimidine derivatives having biological activity on serotonin receptor 5-HT2c” (Korea Institute of Science and Technology, priority 2009, dated 2012)
